Molecules are shown by their SMILES.

The results in this text go back to patent publication US11912701B2, “Protein kinase inhibitors for promoting liver regeneration or reducing or preventing hepatocyte death” (HEPAREGENIX GMBH, priority 2018, dated 2024).

The target in one assay is T1, MKK4 (Homo sapiens, UniProt P45985).
T1 construct: S84/D399; host or cells: HEK-293
T1 sequence (P45985 84-399): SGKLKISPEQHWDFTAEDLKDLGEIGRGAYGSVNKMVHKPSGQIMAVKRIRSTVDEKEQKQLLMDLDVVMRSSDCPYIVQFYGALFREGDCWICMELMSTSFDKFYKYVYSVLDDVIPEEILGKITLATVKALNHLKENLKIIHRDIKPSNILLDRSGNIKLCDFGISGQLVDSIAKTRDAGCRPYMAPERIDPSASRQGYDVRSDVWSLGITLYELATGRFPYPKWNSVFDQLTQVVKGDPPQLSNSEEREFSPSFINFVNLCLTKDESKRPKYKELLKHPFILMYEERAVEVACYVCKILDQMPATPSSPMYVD
Put plainly: KINOMEscan competition binding assay, MKK4. The conditions noted are these: residual percent of control binding (PoC) at 100 nM. On the procedure: (§1) The assay was performed by combining three components: DNA-tagged kinase; immobilized ligand; and a test compound. The ability of the test compound to compete with the immobilized ligand was measured via quantitative PCR of the DNA tag. The technology is described in detail in Fabian, M. A. et al. A small molecule-kinase interaction map for clinical kinase inhibitors. Nat. […] Nat.
(§2) For investigation of the affinity to MKK4, BRaf, MKK7 and JNK1, the kinases were produced in HEK-293 cells and subsequently tagged with DNA for qPCR detection. […] The liganded beads were blocked with excess biotin and washed with blocking buffer (SEABLOCK™ (Pierce), 1% BSA, 0.05% TWEEN®20, 1 mM DTT) to remove unbound ligand and to reduce nonspecific binding. […] All reactions were performed in polystyrene 96-well plates in a final volume of 0.135 mL. […] The kinase concentration in the eluates was measured by qPCR.
(§3) The test compounds were provided as 10 mM stock solutions. The test solutions at indicated final concentrations were prepared at DiscoverX.
Potency of representative examples against the protein kinases MKK4, BRaf, MKK7 and JNK1 expressed as residual percent of control binding (PoC), was determined at a concentration of 100 nM. The determined potencies are categorized as follows: […]

The target in the next assay is T2, BRaf (Homo sapiens, UniProt P15056).
T2 construct: purchased ProQinase GmbH, Freiburg, Germany (33PanQinase Assay Service)
Kind of assay: KINOMEscan competition binding assay, BRaf. The conditions noted are these: ratio PoC (off-target)/PoC (MKK4). The protocol: as §1, §2, §3
(§4) Potency of representative examples against the protein kinases MKK4, BRaf, MKK7 and JNK1 expressed as residual percent of control binding (PoC), was determined at a concentration of 100 nM. The determined potencies are categorized as follows:
(§5) The binding selectivity of representative examples against the protein kinases BRaf, MKK7 and JNK1, altogether denominated as “off-targets” is determined by the ratios of PoC (off-target)/PoC (MKK4).

The next assay deals with T3, MKK7 (Homo sapiens, UniProt O14733).
T3 sequence (O14733 1-419): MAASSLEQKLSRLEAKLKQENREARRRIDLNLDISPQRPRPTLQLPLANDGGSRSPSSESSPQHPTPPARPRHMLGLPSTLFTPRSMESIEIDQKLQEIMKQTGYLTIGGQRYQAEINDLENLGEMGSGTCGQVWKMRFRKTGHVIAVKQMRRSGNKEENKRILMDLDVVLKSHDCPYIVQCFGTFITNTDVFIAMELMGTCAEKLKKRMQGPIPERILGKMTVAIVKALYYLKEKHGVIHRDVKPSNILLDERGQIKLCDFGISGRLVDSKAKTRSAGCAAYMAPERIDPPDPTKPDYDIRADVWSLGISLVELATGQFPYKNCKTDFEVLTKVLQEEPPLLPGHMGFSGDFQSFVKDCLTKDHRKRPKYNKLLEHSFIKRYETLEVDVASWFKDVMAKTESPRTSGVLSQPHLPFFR
Put plainly: KINOMEscan competition binding assay, MKK7. The following applies: ratio PoC (off-target)/PoC (MKK4). Also noted: M1/R419; host or cells: HEK-293. On the procedure:
as §1, §2, §3, §4, §5

The next assay addresses JNK1 (Homo sapiens, UniProt P45983). Kind of assay: KINOMEscan competition binding assay, JNK1. Set-up: M1/Q384; host or cells: HEK-293. The conditions noted are these: ratio PoC (off-target)/PoC (MKK4). On the procedure:
as §1, §2, §3, §4, §5

Chain of JNK1 (P45983 1-384 isoform P45983-2): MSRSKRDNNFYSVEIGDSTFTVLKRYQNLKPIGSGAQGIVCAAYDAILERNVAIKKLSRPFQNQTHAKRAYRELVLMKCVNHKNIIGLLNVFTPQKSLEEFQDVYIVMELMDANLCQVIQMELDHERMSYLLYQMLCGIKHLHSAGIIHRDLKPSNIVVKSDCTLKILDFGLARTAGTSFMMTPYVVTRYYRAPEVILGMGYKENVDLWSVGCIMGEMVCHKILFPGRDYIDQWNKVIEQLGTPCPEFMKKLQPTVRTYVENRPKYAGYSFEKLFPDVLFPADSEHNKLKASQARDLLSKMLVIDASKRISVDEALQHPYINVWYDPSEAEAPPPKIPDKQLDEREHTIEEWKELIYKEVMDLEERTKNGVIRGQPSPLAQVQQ
T2 sequence (P15056 whole entry, species assumed): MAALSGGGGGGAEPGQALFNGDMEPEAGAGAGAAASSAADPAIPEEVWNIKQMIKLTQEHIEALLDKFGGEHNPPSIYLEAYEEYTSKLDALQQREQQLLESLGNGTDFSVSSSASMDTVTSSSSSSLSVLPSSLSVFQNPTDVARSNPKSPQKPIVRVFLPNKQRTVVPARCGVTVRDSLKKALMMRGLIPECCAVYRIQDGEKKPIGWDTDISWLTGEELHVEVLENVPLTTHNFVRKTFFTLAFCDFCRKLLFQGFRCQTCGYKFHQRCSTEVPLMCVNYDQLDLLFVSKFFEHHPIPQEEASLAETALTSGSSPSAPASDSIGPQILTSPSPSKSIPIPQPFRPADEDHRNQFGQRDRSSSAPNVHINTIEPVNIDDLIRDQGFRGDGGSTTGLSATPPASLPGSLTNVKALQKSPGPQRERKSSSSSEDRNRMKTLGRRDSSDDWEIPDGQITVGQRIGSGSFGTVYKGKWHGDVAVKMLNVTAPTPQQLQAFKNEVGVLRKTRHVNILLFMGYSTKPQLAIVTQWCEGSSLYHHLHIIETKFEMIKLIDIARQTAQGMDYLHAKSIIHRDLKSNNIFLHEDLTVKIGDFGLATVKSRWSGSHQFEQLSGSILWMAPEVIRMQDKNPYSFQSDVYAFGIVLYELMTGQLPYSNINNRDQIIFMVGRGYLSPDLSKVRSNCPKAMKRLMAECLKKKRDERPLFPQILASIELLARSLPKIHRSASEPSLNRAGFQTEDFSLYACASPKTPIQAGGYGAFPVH

Regarding `CCCCS(=O)(=O)Nc1ccc(F)c(C(=O)c2c[nH]c3ncc(-c4ccc(F)cc4C)cc23)c1F` [Example 19, N-(2,4-difluoro-3-(5-(4-fluoro-2-methylphenyl)-1H-pyrrolo[2,3-b]pyridine-3-carbonyl)phenyl)butane-1-sulfonamide], the “MKK4 [% Ctrl @ 100 nM” value at MKK4 is recorded as “+ (3 ≤ PoC < 30)”. For the same compound, the “selectivity based on % Ctrl @100 nM vs. Braf” value on BRaf is recorded as “++ (100 ≥ ratio > 10)”. Moreover, on MKK7, the “selectivity based on % Ctrl @100 nM vs. MKK7” value is on record as “++ (100 ≥ ratio > 10)”. In addition, at JNK1, the “selectivity based on % Ctrl @100 nM vs. JNK1” value is given as “++ (100 ≥ ratio > 10)”.
`CCCNS(=O)(=O)c1cccc(C(=O)c2c[nH]c3ncc(Br)cc23)c1` [Example 14, 3-(5-bromo-1H-pyrrolo[2,3-b]pyridine-3-carbonyl)-N-propyl benzene sulfonamide]: the “MKK4 [% Ctrl @ 100 nM” value on MKK4 is reported as “◯ (30 ≤ PoC)”. Further, the “selectivity based on % Ctrl @100 nM vs. Braf” value on BRaf is given as “◯ (3 ≥ Ratio)”. The “selectivity based on % Ctrl @100 nM vs. MKK7” value at MKK7 is on record as “◯ (3 ≥ Ratio)”. Moreover, the “selectivity based on % Ctrl @100 nM vs. JNK1” value at JNK1 was “◯ (3 ≥ Ratio)”.
Regarding `CCCS(=O)(=O)Nc1ccc(F)c(C(=O)c2c[nH]c3ncc(-c4ccc(N5CCN(C(C)=O)CC5)cc4)cc23)c1F` [Example 24, N-(3-(5-(4-(4-acetylpiperazin-1-yl)phenyl)-1H-pyrrolo[2,3-b]pyridine-3-carbonyl)-2,4-difluorophenyl)propane-1-sulfonamide], the “MKK4 [% Ctrl @ 100 nM” value at MKK4 is “+ (3 ≤ PoC < 30)”. For the same compound, the “selectivity based on % Ctrl @100 nM vs. Braf” value on BRaf is “◯ (3 ≥ Ratio)”. Also, the “selectivity based on % Ctrl @100 nM vs. MKK7” value at MKK7 is reported as “++ (100 ≥ ratio > 10)”. The “selectivity based on % Ctrl @100 nM vs. JNK1” value on JNK1 was “+ (10 ≥ ratio > 3)”.
In the case of `O=C(c1c(F)ccc(NS(=O)(=O)Cc2ccccc2)c1F)c1c[nH]c2ncc(-c3ccc(F)cc3)cc12` [Example 28, N-(2,4-difluoro-3-(5-(4-fluorophenyl)-1H-pyrrolo[2,3-b]pyridine-3-carbonyl)phenyl)-1-phenylmethanesulfonamide], the “MKK4 [% Ctrl @ 100 nM” value at MKK4 is on record as “++ (1 ≤ PoC < 3)”. Further, the “selectivity based on % Ctrl @100 nM vs. Braf” value at BRaf is recorded as “++ (100 ≥ ratio > 10)”. Further, on MKK7, the “selectivity based on % Ctrl @100 nM vs. MKK7” value was “++ (100 ≥ ratio > 10)”. For the same compound, the “selectivity based on % Ctrl @100 nM vs. JNK1” value on JNK1 is listed as “++ (100 ≥ ratio > 10)”.
As to `CCCS(=O)(=O)Nc1ccc(F)c(C(=O)c2c[nH]c3ncc(-c4ccc(OCC(O)CO)cc4)cc23)c1F` (stereo not shown) [Example 31, N-(3-(5-(4-(2,3-dihydroxypropoxy)phenyl)-1H-pyrrolo[2,3-b]pyridine-3-carbonyl)-2,4-difluorophenyl)propane-1-sulfonamide], on MKK4, the “MKK4 [% Ctrl @ 100 nM” value is “+++ (PoC < 1)”. For the same compound, at BRaf, the “selectivity based on % Ctrl @100 nM vs. Braf” value is reported as “◯ (3 ≥ Ratio)”. The “selectivity based on % Ctrl @100 nM vs. MKK7” value at MKK7 was “+++ (Ratio > 100)”. Besides, the “selectivity based on % Ctrl @100 nM vs. JNK1” value on JNK1 is “+++ (Ratio > 100)”.
As for `CCCCS(=O)(=O)Nc1ccc(F)c(C(=O)c2c[nH]c3ncc(-c4ccc(OC)cc4Cl)cc23)c1F` [Example 21, N-(3-(5-(2-chloro-4-methoxyphenyl)-1H-pyrrolo[2,3-b]pyridine-3-carbonyl)-2,4-difluorophenyl)butane-1-sulfonamide], at MKK4, the “MKK4 [% Ctrl @ 100 nM” value is “++ (1 ≤ PoC < 3)”. For the same compound, at BRaf, the “selectivity based on % Ctrl @100 nM vs. Braf” value is recorded as “++ (100 ≥ ratio > 10)”. Besides, the “selectivity based on % Ctrl @100 nM vs. MKK7” value on MKK7 is on record as “++ (100 ≥ ratio > 10)”. Besides, at JNK1, the “selectivity based on % Ctrl @100 nM vs. JNK1” value is “++ (100 ≥ ratio > 10)”.
On to `CCCS(=O)(=O)Nc1cc(Cl)cc(C(=O)c2c[nH]c3ncc(-c4ccc(Cl)cc4)cc23)c1` [Example 16, N-(3-chloro-5-(5-(4-chlorophenyl)-1H-pyrrolo[2,3-b]pyridine-3-carbonyl)phenyl)propane-1-sulfonamide], for which, on MKK4, the “MKK4 [% Ctrl @ 100 nM” value is recorded as “◯ (30 ≤ PoC)”. In addition, at BRaf, the “selectivity based on % Ctrl @100 nM vs. Braf” value is reported as “◯ (3 ≥ Ratio)”. Besides, the “selectivity based on % Ctrl @100 nM vs. MKK7” value at MKK7 is reported as “◯ (3 ≥ Ratio)”. Besides, at JNK1, the “selectivity based on % Ctrl @100 nM vs. JNK1” value is given as “◯ (3 ≥ Ratio)”.
With `C#Cc1cnc2[nH]cc(C(=O)c3c(F)ccc(NS(=O)(=O)CCC)c3F)c2c1` [Example 18, N-(3-(5-ethynyl-1H-pyrrolo[2,3-b]pyridine-3-carbonyl)-2,4-difluorophenyl) propane-1-sulfonamide], the “MKK4 [% Ctrl @ 100 nM” value on MKK4 is “+ (3 ≤ PoC < 30)”. Moreover, on BRaf, the “selectivity based on % Ctrl @100 nM vs. Braf” value is listed as “◯ (3 ≥ Ratio)”. For the same compound, the “selectivity based on % Ctrl @100 nM vs. MKK7” value on MKK7 is recorded as “+ (10 ≥ ratio > 3)”. For the same compound, the “selectivity based on % Ctrl @100 nM vs. JNK1” value on JNK1 is “+ (10 ≥ ratio > 3)”.
As to `CCCS(=O)(=O)Nc1ccc(F)c(C(=O)c2c[nH]c3ncc(-c4ccc(OCC(O)CO)cc4Cl)cc23)c1F` (stereo not shown) [Example 30, N-(3-(5-(2-chloro-4-(2,3-dihydroxypropoxy)phenyl)-1H-pyrrolo[2,3-b]pyridine-3-carbonyl)-2,4-difluorophenyl)propane-1-sulfonamide], the “MKK4 [% Ctrl @ 100 nM” value at MKK4 is “+++ (PoC < 1)”. For the same compound, on BRaf, the “selectivity based on % Ctrl @100 nM vs. Braf” value is reported as “++ (100 ≥ ratio > 10)”. The “selectivity based on % Ctrl @100 nM vs. MKK7” value at MKK7 is “+++ (Ratio > 100)”. Besides, the “selectivity based on % Ctrl @100 nM vs. JNK1” value on JNK1 is given as “+++ (Ratio > 100)”.
As to `CCCS(=O)(=O)Nc1ccc(F)c(C(=O)c2c[nH]c3ncc(-c4ccc(OCC5COC(C)(C)O5)cc4Cl)cc23)c1F` (stereo not shown) [Example 25, N-(3-(5-(2-chloro-4-((2,2-dimethyl-1,3-dioxolan-4-yl)methoxy)phenyl)-1H-pyrrolo[2,3-b]pyridine-3-carbonyl)-2,4-difluorophenyl)propane-1-sulfonamide], the “MKK4 [% Ctrl @ 100 nM” value at MKK4 was “+ (3 ≤ PoC < 30)”. In addition, on BRaf, the “selectivity based on % Ctrl @100 nM vs. Braf” value is recorded as “◯ (3 ≥ Ratio)”. Further, the “selectivity based on % Ctrl @100 nM vs. MKK7” value at MKK7 was “+ (10 ≥ ratio > 3)”. Also, on JNK1, the “selectivity based on % Ctrl @100 nM vs. JNK1” value is recorded as “+ (10 ≥ ratio > 3)”.
`CCCS(=O)(=O)Nc1cc(Br)cc(C(=O)c2c[nH]c3ncc(-c4ccc(Cl)cc4)cc23)c1` [Example 13, N-(3-bromo-5-(5-(4-chlorophenyl)-1H-pyrrolo[2,3-b]pyridine-3-carbonyl)-phenyl)propane-1-sulfonamide]: the “MKK4 [% Ctrl @ 100 nM” value at MKK4 was “◯ (30 ≤ PoC)”. Also, the “selectivity based on % Ctrl @100 nM vs. Braf” value at BRaf is “◯ (3 ≥ Ratio)”. Further, on MKK7, the “selectivity based on % Ctrl @100 nM vs. MKK7” value is listed as “◯ (3 ≥ Ratio)”. Also, the “selectivity based on % Ctrl @100 nM vs. JNK1” value on JNK1 was “◯ (3 ≥ Ratio)”.
As for `CCCS(=O)(=O)Nc1ccc(F)c(C(=O)c2c[nH]c3ncc(-c4ccc(OCC5COC(C)(C)O5)cc4)cc23)c1F` (stereo not shown) [Example 29, N-(3-(5-(4-((2,2-dimethyl-1,3-dioxolan-4-yl)methoxy)phenyl)-1H-pyrrolo[2,3-b]pyridine-3-carbonyl)-2,4-difluorophenyl)propane-1-sulfonamide], the “MKK4 [% Ctrl @ 100 nM” value at MKK4 is reported as “+ (3 ≤ PoC < 30)”. For the same compound, the “selectivity based on % Ctrl @100 nM vs. Braf” value on BRaf is reported as “◯ (3 ≥ Ratio)”. Moreover, the “selectivity based on % Ctrl @100 nM vs. MKK7” value at MKK7 is recorded as “++ (100 ≥ ratio > 10)”. Moreover, the “selectivity based on % Ctrl @100 nM vs. JNK1” value at JNK1 was “++ (100 ≥ ratio > 10)”.
As for `CCCS(=O)(=O)Nc1ccc(F)c(C(=O)c2c[nH]c3ncc(-c4ccc(OC)cc4OC)cc23)c1F` [Example 104, N-(3-(5-(2,4-dimethoxyphenyl)-1H-pyrrolo[2,3-b]pyridine-3-carbonyl)-2,4-difluorophenyl)propane-1-sulfonamide], at MKK4, the “MKK4 [% Ctrl @ 100 nM” value is “+ (3 ≤ PoC < 30)”. Moreover, at BRaf, the “selectivity based on % Ctrl @100 nM vs. Braf” value is “+ (10 ≥ ratio > 3)”. Moreover, the “selectivity based on % Ctrl @100 nM vs. MKK7” value at MKK7 is given as “++ (100 ≥ ratio > 10)”. Moreover, the “selectivity based on % Ctrl @100 nM vs. JNK1” value on JNK1 is “++ (100 ≥ ratio > 10)”.
